# Experimental data from patent publication US20220408777A1, “FOOD COMPOSITION FOR PREVENTING AND AM[…] […] NONI AND METHOD FOR PREPARING SAME” (NSTBIO. CO., LTD., priority 2020, published 2022).
# Structures can show the parent of a compound that is named as a salt.
# Columns and labels:
# [1] = test system: C57BL/KsJ db/db diabetic mice; experiment: Oral glucose tolerance test (OGTT); format: in vivo; conditions: db/db mice after 6 weeks oral administration, Noni 100 mg/kg, Metformin 200 mg/kg; for blood glucose decreased (OGTT): glucose 3.0 g/kg oral
# Procedure: (§1) An administration sample administered to a diabetic model positive control was a Metformin Tab (metformin hydrochloride, JRP), which is a diabetic drug. A dose was 200 mg/kg body weight of a mouse (denoted as Metformin 200 mg/kg).
# (§2) An administration sample administered to a diabetic model fermented noni group was a food composition containing the fermented noni obtained in Example 1. A dose was 100 mg/kg body weight of a mouse (denoted as Noni 100 mg/kg).
# (§3) As for the administration method, each administration sample was dissolved in 0.5% carboxymethyl cellulose (CMC) for each dose and orally administered once a day for 6 weeks.
# After the completion of oral administration for 6 weeks, an oral glucose tolerance test (OGTT) was performed.
# After experimental animals were fasted for 12 hours, fasting blood glucose was measured by collecting blood from the tail vein, and then a 50% glucose solution (3.0 g/kg of B.W) was orally administered to all groups, and after 30 minutes, 60 minutes, 120 minutes and 180 minutes, blood glucose was measured using a glucometer.
# [2] = test system: C57BL/KsJ db/db diabetic mice; experiment: Measurement of fasting blood glucose (in vivo efficacy test for blood glucose lowering); conditions: oral once a day, Noni 100 mg/kg, Metformin 200 mg/kg
# Procedure: as §1, §2, §3
# The fasting blood glucose of the experimental animals was measured once a week for 6 weeks using a glucometer. Fasting blood glucose was measured at 1-week (7-day) intervals for 6 weeks (42 days) for each experimental group.
smiles,measurement,setting,value
"CN(C)C(=N)N=C(N)N [Metformin, metformin hydrochloride]",AUC value decreased (OGTT area under curve),"[1]; compared to db/db control, FIG. 4",23.3%
same,blood glucose decreased (OGTT),"[1]; at 2 hr, compared to db/db control",22.9%
same,blood glucose decreased (OGTT),"[1]; at 3 hr, compared to db/db control",28.5%
same,blood glucose decreased (OGTT),"[1]; from 1 hr, compared to blood glucose increased at 0.5 hr in db/db control",33.1%
same,decrease in fasting blood glucose,[2]; after 6 weeks,34%
same,fasting blood glucose,"[2]; for 1 to 6 weeks, FIG. 2",consistently low
